“And” between values parts separate entries of the source, which are not always exact repeats. Equal entries are not always repeated.
Key:
Toxicity on injection = assay type: in vivo; details: injections of 20 mg/kg
HBMECs = test: Migration of endothelial cells; assay type: cell-based
U87-MG cells = test: Proteome array of supernatants of U87-MG cells (proteins involved in angiogenesis); assay type: cell-based; details: for DPPIV/CD 26, proteome array / Endoglin/CD105, proteome array / Endothelin-1 (ET-1), proteome array / IGFBP-1, proteome array / IGFBP-3, proteome array / IL-8/CXCL8, proteome array / MCP-1/CCL2, proteome array / NRG1-β1/HRG1-β1, proteome array / Pentraxin 3 (PTX3)/TSG-14, proteome array / Serpin E1/Pal-1, proteome array / TIMP-1, proteome array / TIMP-4, proteome array / TSP-1, proteome array / VEGF, proteome array / uPA, proteome array: supernatant of U87-MG after treatment
Text: (§1) FIGS. 2A to 2C represent analysis results of soluble factors that occur in angiogenesis: • Supernatants of U87-MG cells were studied by proteome array (FIGS. 2A and 2B) for the research of proteins involved in angiogenesis, in the presence of sterile water, TSP-1 and the oligopeptide according to the invention. The secretions of VEGFA via the U87-MG in the medium after treatments with sterile water, TSP-1 and the oligopeptide according to the invention, were metered by ELISA from supernatants (FIG. 2C).

HUVECs or HBMECs = test: Proliferation of endothelial cells; assay type: cell-based; details: in vitro
[1] = system: tumors from subcutaneous heterotopic grafts; test: Tumors from subcutaneous heterotopic grafts in nude mouse: Ki67, CD31, tumor volume; assay type: in vivo; details: for Tumor Volume D0: day 0 after injection of cancer cells, treatment in hydrogel injected on 21st day; for Tumor Volume D5: day 5 after injection of cancer cells; for Tumor Volume D5 / Tumor Volume D12 / Tumor Volume D17 / Tumor Volume D19: before treatment (21st day); for Tumor Volume D12: day 12 after injection of cancer cells; for Tumor Volume D17: day 17 after injection of cancer cells; for Tumor Volume D19: day 19 after injection of cancer cells; for Tumor Volume D21: day 21 after injection of cancer cells, day of treatment injection in hydrogel; for Tumor Volume D23: day 23 after injection of cancer cells, 48 hours after treatment in hydrogel; for Ki67 labeling quantification, Mean Center / CD31 labeling quantification, Center: tumor center
Text: FIGS. 7A to 7E show the results of the analysis of the activity of the oligopeptide according to the invention on the proliferation, the vascularization, and the tumor growth in nude mice: • The images A, B and C of FIG. 7A show the immunolabeling of Ki-67 on tumor sections treated by H2O, TSP-1 or the oligopeptide according to the invention respectively. • The images D, E and F of FIG. 7A are magnifications (2×) of FIGS. A, B and C. • The images G, H and I of FIG. 7A represent the immunolabeling of CD31 on tumor sections that are treated by H2O, TSP-1 or the oligopeptide according to the invention respectively (the bars of the scale correspond to 500 μm). • The images J, K and L of FIG. 7A are magnifications (2×) of the images G, H and I.
The Ki-67 labeling was quantified under the various conditions using imageJ software, and comparisons between the center and the edge of tumors and between the conditions were carried out (FIG. 7B) by analysis of variances (ANOVA test). A value of p<0.05 is considered to be significant. * p<0.05 that is compared to the center of the same tumors; $ p<0.05 and $$ p<0.01 that is compared to the control. • The CD31 labeling was quantified under the various conditions using image J software, and comparisons between the center and the edge of tumors and between the conditions were carried out (FIG. 7C) by analysis of variances (ANOVA test). […] The injections of the treatments (hydrogel by itself, TSP-1 and the oligopeptide according to the invention (NX) were carried out on the 21st day (black arrow)). The comparison of the tumor sizes in comparison to the controls was carried out by analysis of variances (ANOVA test). ** p<0.01; *** p<0.001.
The experimentation on the mouse confirms the results that are obtained with the CAM model. In this case, the tumors were obtained from subcutaneous heterotopic grafts in the area of the leg of a nude mouse (FIGS. 7B, 7C and 7E).
Tables 6, 7 and 8: These tables correspond to the raw values that are obtained during various analyses conducted on the tumors that are treated in vivo. Analysis of the proliferation (Ki67 labeling quantification) (F), analysis of the vascularization (CD31 labeling quantification) (G) and analysis of the tumor growth as a function of time (measurement of the tumor volume) (H). “con,” “CTRL” and “hydrogel” treatments are control conditions, “TSP” and “TSP1” are the treatments with thrombospondin 1 (TSP-1), and NX is the treatment with the peptide according to the invention

[2] = system: secretions of VEGFA via the U87-MG; test: ELISA metering of VEGF in the supernatant of U87-MG; assay type: cell-based; details: for VEGF ELISA reading, Val1 / VEGF ELISA reading, Val2 / VEGF Mean / VEGF pg/mL1 / VEGF pg/mL2 / VEGF ELISA reading, Mean: supernatant of U87-MG (SN U87) after treatment; for VEGF ELISA reading, Mean: mean of Val1 and Val2
Text: as §1

[3] = nude mouse tumor sections, tumor edge

| Substance | DPPIV/CD 26, proteome array (U87-MG cells) | Endoglin/CD105, proteome array (U87-MG cells) | Endothelin-1 (ET-1), proteome array (U87-MG cells) | IGFBP-1, proteome array (U87-MG cells) | IGFBP-3, proteome array (U87-MG cells) | IL-8/CXCL8, proteome array (U87-MG cells) | MCP-1/CCL2, proteome array (U87-MG cells) | NRG1-β1/HRG1-β1, proteome array (U87-MG cells) | Pentraxin 3 (PTX3)/TSG-14, proteome array (U87-MG cells) | Serpin E1/Pal-1, proteome array (U87-MG cells) | TIMP-1, proteome array (U87-MG cells) | TIMP-4, proteome array (U87-MG cells) | TSP-1, proteome array (U87-MG cells) | VEGF, proteome array (U87-MG cells) | uPA, proteome array (U87-MG cells) | Tumor Volume D0 ([1]; nude mice) | Tumor Volume D5 ([1]; nude mice) | Tumor Volume D12 ([1]; nude mice) | Tumor Volume D17 ([1]; nude mice) | Tumor Volume D19 ([1]; nude mice) | also measured |
| --- | --- | --- | --- | --- | --- | --- | --- | --- | --- | --- | --- | --- | --- | --- | --- | --- | --- | --- | --- | --- | --- |
| —W—S-G-W—S—S—C—S—R—S—C-G- (WSGWSSCSRSCG; Oligopeptide derived from SCO-Spondin) [NX] | 0.08222 | 0 | 0.09418 | 1.165 | 0.1856 | 1.698 | 1.861 | 0.1465 | 0.6179 | 0.8632 | 3.888 | 2.15 | 0.07983 | 1.021 | 1.209 | 0 mm^3 | 46.46 mm^3 | 39.04 mm^3 | 70.6 mm^3 | 78.82 mm^3 | Toxicity (Toxicity on injection): no toxicity; Migration of the HBMECs induced by glioblastoma tumor cells (HBMECs; brought into contact with the U87-MG or HBMECs): inhibits; Migration in the presence of an angiogenic factor (HBMECs; in the presence of VEGF or bFGF): promotes the migration; MCP-1 secretion (in words) (U87-MG cells; medium of treated U87-MG cells): large increase in MCP-1; Proliferation of HUVECs or HBMECs (HUVECs or HBMECs): does not modulate the proliferation; Cell proliferation, Ki-67 labeling (in words) ([1]; nude mice tumors): decrease in the Ki-67 labeling; CD31 labeling (in words) ([1]; nude mice tumors, periphery, compared with control): reduction in the CD31 labeling on the periphery; Tumor volume change (in words) ([1]; nude mice, 48 hours after the treatment): decrease in volume; Tumor Volume D21 ([1]; nude mice): 135.6 mm^3; Tumor Volume D23 ([1]; nude mice): 68.03 mm^3; Ki67 labeling quantification, Mean Center ([1]; nude mouse tumor sections): 181.7; CD31 labeling quantification, Center ([1]; nude mouse tumor sections, raw values): 26 and 40 and 28 and 38; Ki67 labeling quantification, Mean Edge [1, 3]: 49.75; VEGF-A in the supernatant of U87-MG (in words) [2]: reduction in VEGF-A; VEGF ELISA reading, Val1 [2]: 0.333; VEGF ELISA reading, Val2 [2]: 0.266; VEGF Mean [2]: 287 pg/mL; VEGF pg/mL1 [2]: 342.8 pg/mL; VEGF pg/mL2 [2]: 231.2 pg/mL; VEGF ELISA reading, Mean [2]: 0.2995 |
| thrombospondin 1 [TSP, reference compound] | 0 | 0.09236 | 0.0994 | 1.724 | 0.5713 | 2.901 | 0.1534 | 0 | 0.7118 | 0.855 | 4.593 | 2.041 | 0.08481 | 1.397 | 1.489 | 0 mm^3 | 33.55 mm^3 | 29.93 mm^3 | 49.88 mm^3 | 81.07 mm^3 | IL-8 secretion (in words) (U87-MG cells; medium of treated U87-MG cells): significant increase in IL-8; Tumor Volume D21 ([1]; nude mice): 112.5 mm^3; Tumor Volume D23 ([1]; nude mice): 101.9 mm^3; Ki67 labeling quantification, Mean Center ([1]; nude mouse tumor sections): 200.3; CD31 labeling quantification, Center ([1]; nude mouse tumor sections, raw values, listed as TSP1): 66 and 53 and 63 and 56; Ki67 labeling quantification, Mean Edge [1, 3]: 228.2; CD31 labeling quantification, Edge ([1]; nude mouse tumor sections, tumor edge, raw values, listed as TSP1): 53 and 42 and 39 and 45; VEGF ELISA reading, Val1 [2]: 0.5; VEGF ELISA reading, Val2 [2]: 0.518; VEGF Mean [2]: 636.2 pg/mL; VEGF pg/mL1 [2]: 621.2 pg/mL; VEGF pg/mL2 [2]: 651.2 pg/mL; VEGF ELISA reading, Mean [2]: 0.509 |

From US20190255144A1, “SPECIFIC OLIGOPEPTIDES AS ANTI-ANGIOGENIC DRUGS” (NEURONAX, priority 2014, published 2019)
